Experimental findings from US10689362B2, “Quinoxaline compounds as type III receptor tyrosine kinase inhibitors” (Development Center for Biotechnology, priority 2016, dated 2020) are described below.

One experiment deals with CSF-1R kinase (Homo sapiens (Human), UniProt P07333). In words: CSF-1R kinase assay (AlphaScreen). The format is biochemical. Particulars: class symbol. Here is the method:
Inhibition of CSF-1R kinase activity by a test compound disclosed herein was estimated by AlphaScreen (PerkinElmer). […] Reactions were incubated at 30° C. for 45 min and stopped by adding 5 μL of 50 mM EDTA. Analysis of resulting product using an AlphaScreen kit, and counted with Enspire Alpha (PerkinElmer). […] The IC50 values of quinoxaline compounds of this invention against CSF-1R kinase were determined using the GraphPad Prism 5 software.
For orientation: Alpha assays give light when donor and acceptor beads are brought close together.

Another experiment addresses c-KIT kinase (Homo sapiens (Human), UniProt P10721). Put plainly: c-KIT kinase assay (radiometric). The format is biochemical. Particulars: class symbol. In a few lines:
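Recombinant c-Kit (20 ng) with 2 μg Poly-(Glu4:Tyr1) in MOPS pH 7.0 buffer with MgCl2/MnCl2, 10 μM ATP plus [^33P]-ATP, 4% DMSO final, 60 min at 30° C. Stopped with phosphoric acid, filter-captured and scintillation counted; IC50 from curve fit.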

The target in the next experiment is FLT3 kinase (Homo sapiens (Human), UniProt P36888). Put plainly: FLT3 kinase assay (radiometric). Type of experiment: biochemical. Conditions: bound. An outline of the steps:
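Recombinant FLT3 (5 ng) phosphorylating poly(Glu4:Tyr1) (2 μg) with 10 μM ATP plus [^33P]-ATP in MOPS pH 7.0 buffer, 4% DMSO final, 60 min at 30° C. Reaction stopped with phosphoric acid, filter-captured and scintillation-counted; IC50 derived from dose-response.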

For another experiment, the target named is PDGFRβ kinase (Homo sapiens (Human), UniProt P09619). Put plainly: PDGFRβ kinase assay (radiometric). The format is biochemical. An outline of the steps:
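Radiometric assay: recombinant PDGFRβ with poly(Glu4:Tyr1) in MOPS pH 7.0 buffer containing Mg2+/Mn2+, 10 μM ATP plus [33P]-ATP, and compound at 4% DMSO final. Incubated 60 min at 30° C, stopped with phosphoric acid, filter-captured and scintillation-counted. IC50 from curve fitting.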

Experiment [1] concerns CSF-1-dependent M-NFS-60 mouse myeloid leukemia cell. Put plainly: M-NFS-60 cell proliferation assay (CellTiter-96). The format is cell-based. Conditions: Cytotoxicity, M-NFS-60 cells, 72 hours. An outline of the steps: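 CSF-1-dependent M-NFS-60 cells seeded at 2000 cells/well, settled overnight at 37 °C, 5% CO2, then exposed to increasing compound concentrations for 72 h. Viability read by CellTiter 96 AQueous One reagent (4 h) at 490 nm absorbance.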

In experiment [2] the test system is MV4-11 human acute myeloid leukemia cell with FLT3-ITD mutation. Put plainly: MV4-11 cell proliferation assay (CellTiter-96). The format is cell-based. Particulars: Cytotoxicity, MV4-11 cells, 72 hours. An outline of the steps:
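MV4-11 cells (FLT3-ITD, FLT3-dependent growth) seeded at 6500 cells/well, incubated overnight at 37° C., 5% CO2, then exposed to increasing compound concentrations for 72 hours. Viability read by CellTiter96 AQueous One reagent (4 hours), absorbance at 490 nm.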

The subject of experiment [3] is Kasumi-1 human acute myeloid leukemia cell with c-KIT N822K activating mutation. Put plainly: Kasumi-1 cell proliferation assay (CellTiter-96). Type of experiment: cell-based. Conditions: Cytotoxicity, Kasumi-1 cells, 72 hours. An outline of the steps:
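Kasumi-1 cells, seeded at 64000 cells/well and incubated overnight at 37 °C, were exposed to increasing compound concentrations for 72 h. Viability was measured by CellTiter96 AQueous One reagent (4 h) and absorbance at 490 nm.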

Experiment [4] has as its system THP-1 human acute monocytic leukemia cell harboring NRAS G12D mutation. Put plainly: THP-1 cell proliferation assay (counter screen, CellTiter-96). The format is cell-based. Particulars: Cytotoxicity, THP-1 cells (counter screen), 72 hours. In a few lines: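 THP-1 cells, RTK-independent owing to NRAS G12D, seeded at 5000/well, incubated overnight at 37 °C/5% CO2, then exposed to increasing compound concentrations for 72 h. CellTiter96 AQueous One reagent added for 4 h; viability from absorbance at 490 nm.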

For experiment [5], the system named is osteoclast precursors (osteoclast differentiation). Put plainly: Osteoclast tartrate-resistant acid phosphatase assay. Conditions: 168 h, at 1 μM treatment, 7 days, RANKL and M-CSF, read-out: inhibition activity against osteoclast differentiation. The format is cell-based. An outline of the steps: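 Differentiation inhibition was scored at 1 μM compound in duplicate, using supernatant TRAP activity read at 550 nm with an acid phosphatase kit.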

PDGFRβ kinase, sequence (P09619 33-1106): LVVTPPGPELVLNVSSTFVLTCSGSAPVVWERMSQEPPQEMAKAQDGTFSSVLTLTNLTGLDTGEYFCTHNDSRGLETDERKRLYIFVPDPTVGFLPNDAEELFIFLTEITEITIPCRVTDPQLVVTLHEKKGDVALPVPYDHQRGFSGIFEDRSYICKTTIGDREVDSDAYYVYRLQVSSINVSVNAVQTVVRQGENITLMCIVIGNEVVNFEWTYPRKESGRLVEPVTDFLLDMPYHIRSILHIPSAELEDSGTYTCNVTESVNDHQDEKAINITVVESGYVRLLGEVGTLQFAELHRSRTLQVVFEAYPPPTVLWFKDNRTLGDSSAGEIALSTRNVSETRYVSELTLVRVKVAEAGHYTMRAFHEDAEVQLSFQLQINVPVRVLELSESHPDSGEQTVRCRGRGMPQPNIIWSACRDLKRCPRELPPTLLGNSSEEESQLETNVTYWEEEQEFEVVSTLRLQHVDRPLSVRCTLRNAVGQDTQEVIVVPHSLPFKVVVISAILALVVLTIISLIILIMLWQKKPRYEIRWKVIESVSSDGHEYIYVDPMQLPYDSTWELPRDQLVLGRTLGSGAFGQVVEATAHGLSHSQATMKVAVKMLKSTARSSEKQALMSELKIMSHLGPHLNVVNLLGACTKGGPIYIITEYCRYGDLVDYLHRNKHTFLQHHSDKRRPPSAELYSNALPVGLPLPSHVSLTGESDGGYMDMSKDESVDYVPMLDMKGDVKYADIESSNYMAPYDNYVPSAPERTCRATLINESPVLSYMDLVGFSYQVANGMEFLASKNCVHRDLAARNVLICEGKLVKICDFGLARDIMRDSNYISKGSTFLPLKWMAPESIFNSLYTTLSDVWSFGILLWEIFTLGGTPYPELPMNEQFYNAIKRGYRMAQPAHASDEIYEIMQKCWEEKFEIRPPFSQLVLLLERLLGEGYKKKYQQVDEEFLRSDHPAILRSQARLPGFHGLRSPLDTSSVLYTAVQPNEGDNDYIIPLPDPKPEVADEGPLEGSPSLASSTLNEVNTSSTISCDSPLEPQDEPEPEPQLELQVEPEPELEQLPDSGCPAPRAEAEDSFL
CSF-1R kinase, sequence (P07333 20-972): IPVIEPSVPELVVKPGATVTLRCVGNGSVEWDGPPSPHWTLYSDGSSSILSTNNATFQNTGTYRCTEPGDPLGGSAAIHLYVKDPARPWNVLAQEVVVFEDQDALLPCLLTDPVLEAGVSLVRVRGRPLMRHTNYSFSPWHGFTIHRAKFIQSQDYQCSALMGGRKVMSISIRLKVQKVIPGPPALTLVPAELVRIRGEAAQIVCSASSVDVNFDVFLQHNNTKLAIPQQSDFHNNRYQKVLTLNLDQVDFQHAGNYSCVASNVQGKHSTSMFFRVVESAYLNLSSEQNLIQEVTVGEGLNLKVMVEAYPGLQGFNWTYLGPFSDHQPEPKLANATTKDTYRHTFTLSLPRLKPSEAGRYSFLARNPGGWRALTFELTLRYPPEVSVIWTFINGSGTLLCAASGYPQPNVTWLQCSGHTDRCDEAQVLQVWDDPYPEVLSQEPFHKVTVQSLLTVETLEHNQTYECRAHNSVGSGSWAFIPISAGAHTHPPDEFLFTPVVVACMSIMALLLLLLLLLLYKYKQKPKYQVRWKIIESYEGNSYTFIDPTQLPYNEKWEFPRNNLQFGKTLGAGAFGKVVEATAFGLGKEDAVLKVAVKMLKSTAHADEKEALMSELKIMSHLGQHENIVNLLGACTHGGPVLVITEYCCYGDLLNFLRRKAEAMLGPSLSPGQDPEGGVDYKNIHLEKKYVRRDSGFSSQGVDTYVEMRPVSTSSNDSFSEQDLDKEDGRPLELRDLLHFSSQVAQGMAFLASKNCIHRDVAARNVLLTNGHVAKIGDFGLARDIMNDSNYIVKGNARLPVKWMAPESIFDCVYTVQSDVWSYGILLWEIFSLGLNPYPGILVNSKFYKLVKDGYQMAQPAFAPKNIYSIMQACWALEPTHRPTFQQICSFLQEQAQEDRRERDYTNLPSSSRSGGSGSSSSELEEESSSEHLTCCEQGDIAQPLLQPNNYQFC
c-KIT kinase, sequence (P10721 26-976): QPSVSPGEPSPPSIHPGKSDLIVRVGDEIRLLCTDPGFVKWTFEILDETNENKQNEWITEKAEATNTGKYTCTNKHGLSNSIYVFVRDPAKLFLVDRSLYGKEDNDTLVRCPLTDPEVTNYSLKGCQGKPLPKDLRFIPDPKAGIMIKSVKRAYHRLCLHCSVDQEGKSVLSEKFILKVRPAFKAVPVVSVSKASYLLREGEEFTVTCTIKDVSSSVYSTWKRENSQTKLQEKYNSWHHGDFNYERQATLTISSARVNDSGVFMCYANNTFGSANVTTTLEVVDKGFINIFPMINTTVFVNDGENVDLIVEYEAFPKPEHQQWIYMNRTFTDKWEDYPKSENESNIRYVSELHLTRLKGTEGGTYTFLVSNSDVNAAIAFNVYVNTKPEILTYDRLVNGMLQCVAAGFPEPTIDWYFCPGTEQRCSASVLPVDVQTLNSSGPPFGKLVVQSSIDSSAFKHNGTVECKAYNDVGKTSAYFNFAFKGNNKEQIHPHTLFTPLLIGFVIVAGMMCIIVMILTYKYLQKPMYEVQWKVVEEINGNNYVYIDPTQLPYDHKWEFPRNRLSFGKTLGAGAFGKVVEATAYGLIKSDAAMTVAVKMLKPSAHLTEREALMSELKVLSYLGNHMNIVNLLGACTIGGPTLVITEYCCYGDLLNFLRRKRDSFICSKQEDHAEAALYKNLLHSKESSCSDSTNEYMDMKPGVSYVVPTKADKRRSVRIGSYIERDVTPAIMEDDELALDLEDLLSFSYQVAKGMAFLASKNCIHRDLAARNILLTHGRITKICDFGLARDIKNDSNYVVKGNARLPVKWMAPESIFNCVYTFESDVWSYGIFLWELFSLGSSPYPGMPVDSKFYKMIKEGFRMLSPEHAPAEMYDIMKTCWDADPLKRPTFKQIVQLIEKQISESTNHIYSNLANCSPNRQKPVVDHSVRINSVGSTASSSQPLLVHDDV
FLT3 kinase, sequence (P36888 27-993): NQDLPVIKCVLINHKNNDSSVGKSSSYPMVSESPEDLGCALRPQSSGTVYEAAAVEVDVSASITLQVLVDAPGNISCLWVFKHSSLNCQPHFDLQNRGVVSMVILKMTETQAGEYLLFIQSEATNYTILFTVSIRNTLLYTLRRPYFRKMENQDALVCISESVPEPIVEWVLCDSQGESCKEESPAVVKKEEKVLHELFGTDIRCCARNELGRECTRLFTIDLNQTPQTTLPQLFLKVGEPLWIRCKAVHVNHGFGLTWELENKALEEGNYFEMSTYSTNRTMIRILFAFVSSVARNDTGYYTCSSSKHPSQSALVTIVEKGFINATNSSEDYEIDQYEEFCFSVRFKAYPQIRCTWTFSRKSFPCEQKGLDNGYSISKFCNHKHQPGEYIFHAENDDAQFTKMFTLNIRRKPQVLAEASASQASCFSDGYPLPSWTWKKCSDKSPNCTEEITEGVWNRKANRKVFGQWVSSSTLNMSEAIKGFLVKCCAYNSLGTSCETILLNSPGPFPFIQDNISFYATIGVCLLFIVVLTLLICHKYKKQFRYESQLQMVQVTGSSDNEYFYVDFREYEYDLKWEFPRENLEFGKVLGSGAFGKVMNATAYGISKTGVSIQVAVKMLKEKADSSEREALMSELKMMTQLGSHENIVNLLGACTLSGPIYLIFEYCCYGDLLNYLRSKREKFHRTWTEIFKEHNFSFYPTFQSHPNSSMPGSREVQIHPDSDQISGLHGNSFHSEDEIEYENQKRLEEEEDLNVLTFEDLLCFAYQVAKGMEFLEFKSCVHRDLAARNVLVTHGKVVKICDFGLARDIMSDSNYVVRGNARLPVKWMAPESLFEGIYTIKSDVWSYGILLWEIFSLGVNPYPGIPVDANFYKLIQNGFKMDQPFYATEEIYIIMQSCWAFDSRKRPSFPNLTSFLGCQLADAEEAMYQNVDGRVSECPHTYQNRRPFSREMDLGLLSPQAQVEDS

As usually defined, the IC50 is the point on the concentration scale where inhibition reaches its midpoint. As usually defined, the inhibition is the change of the read-out against control, counted positive when it falls. On to `COc1cc(Nc2ccc3ncc(C4=CCOCC4)nc3c2C#N)ccc1OCc1ccc(C)nc1` [Example 113, 3-(3,6-dihydro-2H-pyran-4-yl)-6-((3-methoxy-4-((6-methylpyridin-3-yl)methoxy)phenyl)amino)quinoxaline-5-carbonitrile], for which the IC50 against CSF-1R kinase is under 100 nM; against c-KIT kinase, under 100 nM; on FLT3 kinase, over 1000 nM; against PDGFRβ kinase (bound), over 1000 nM; in experiment [1], under 300 nM; in experiment [2], 1000 to 10000 nM. Besides, the values for the IC50 in experiment [3] and in experiment [4] were 300 to 1000 nM and over 10000 nM, respectively. Further, the inhibition at 1 µM in [5] was over 50%.
Consider `COc1ccc(COc2ccc(Nc3ccc4ncc(N5CCNCC5)nc4c3C#N)cc2OC)cn1` [Example 59, 6-((3-methoxy-4-((6-methoxypyridin-3-yl)methoxy)phenyl)amino)-3-(piperazin-1-yl)quinoxaline-5-carbonitrile], for which the IC50 against CSF-1R kinase was under 100 nM; against c-KIT kinase, 100 to 300 nM; against FLT3 kinase, over 1000 nM; against PDGFRβ kinase (bound) it was over 1000 nM; in experiment [1], under 300 nM; in [2], 1000 to 10000 nM. Further, the IC50 in [3] was 300 to 1000 nM; in [4], 1000 to 10000 nM. Moreover, in experiment [5], the inhibition at 1 µM was over 50%.
On to `CCOc1ccc(COc2ccc(Nc3ccc4ncc(N5CCOCC5)nc4c3C#N)cc2OC)cc1` [Example 35, 6-((4-((4-ethoxybenzyl)oxy)-3-methoxyphenyl)amino)-3-morpholinoquinoxaline-5-carbonitrile], for which the IC50 was under 100 nM on CSF-1R kinase; under 100 nM against c-KIT kinase; over 1000 nM against FLT3 kinase; 300 to 1000 nM against PDGFRβ kinase (class symbol); under 300 nM in [1]; 1000 to 10000 nM in experiment [2]. Moreover, the values for the IC50 in experiment [3] and in [4] were under 300 nM and over 10000 nM, respectively. In addition, the inhibition at 1 µM in [5] was over 50%.
For `COc1ccc(COc2ccc(Nc3ccc4ncc(N(C)C)nc4c3C#N)cc2OC)cn1` [Example 137, 3-(dimethylamino)-6-((3-methoxy-4-((6-methoxypyridin-3-yl)methoxy)phenyl)amino)quinoxaline-5-carbonitrile], the IC50 is under 100 nM at CSF-1R kinase; under 100 nM at c-KIT kinase; over 1000 nM against FLT3 kinase; over 1000 nM at PDGFRβ kinase (bound); under 300 nM in experiment [1]; 1000 to 10000 nM in [2]. The IC50 in experiment [3] was 300 to 1000 nM; in experiment [4] it was over 10000 nM. For the same molecule, in [5], the inhibition at 1 µM is over 50%.
`COc1cc(Nc2ccc3ncc(N4CCOCC4)nc3c2C#N)cnc1OCc1ccc(C)nc1` [Example 143, 6-((5-methoxy-6-((6-methylpyridin-3-yl)methoxy)pyridin-3-yl)amino)-3-morpholinoquinoxaline-5-carbonitrile]: the IC50 against CSF-1R kinase was under 100 nM; at c-KIT kinase, 300 to 1000 nM; at FLT3 kinase it was over 1000 nM; against PDGFRβ kinase (bound), over 1000 nM; in [1], under 300 nM; in experiment [2], 1000 to 10000 nM. The IC50 in experiment [3] and in experiment [4] was over 10000 nM each time. The inhibition at 1 µM in [5] is over 50%.
On to `COc1cc(Nc2ccc3ncc(N4CCOCC4)nc3c2C#N)ccc1OCc1ccc(Cl)cc1` [Example 49, 6-((4-((4-chlorobenzyl)oxy)-3-methoxyphenyl)amino)-3-morpholinoquinoxaline-5-carbonitrile], for which the IC50 at CSF-1R kinase is under 100 nM; against c-KIT kinase, under 100 nM; against FLT3 kinase, over 1000 nM; at PDGFRβ kinase (bound), over 1000 nM; in experiment [1], under 300 nM; in experiment [2] it was 1000 to 10000 nM. Moreover, the IC50 in experiment [3] is 300 to 1000 nM; in experiment [4], over 10000 nM. Besides, the inhibition at 1 µM in [5] is over 50%.
